Experimental data from BigSolDB 2.1.

CC1(C)S[C@@H]2[C@H](NC(=O)[C@H](NC(=O)N3CCNC3=O)c3ccccc3)C(=O)N2[C@H]1C(=O)O
solubility (mole fraction)
Settings | 278.15 K | 283.15 K | 288.15 K | 293.15 K | 298.15 K | 303.15 K | 308.15 K | 313.15 K | 318.15 K | 323.15 K
in THF | 0.00106 | 0.00115 | 0.00131 | 0.00149 | 0.00164 | 0.00178 | 0.00199 | 0.00218 | 0.00243 | 0.00276
in acetone | 0.000492 | 0.000572 | 0.000667 | 0.000823 | 0.000919 | 0.00112 | 0.00133 | 0.00155 | 0.00192 | 0.00223
in acetonitrile | 0.000491 | 0.000551 | 0.000643 | 0.000757 | 0.000836 | 0.000934 | 0.00108 | 0.00122 | 0.00137 | 0.00156
in ethanol | 0.000687 | 0.000805 | 0.000954 | 0.00113 | 0.00131 | 0.00165 | 0.00197 | 0.00245 | 0.00296 | 0.00368
in ethyl acetate | 0.000219 | 0.000243 | 0.000287 | 0.000311 | 0.000353 | 0.000411 | 0.000462 | 0.000528 | 0.000613 | 0.000688
in isopropanol | 9.02e-05 | 0.000111 | 0.000132 | 0.000162 | 0.000196 | 0.00024 | 0.000289 | 0.000376 | 0.000456 | 0.000557
in isopropyl acetate | 6.88e-05 | 7.89e-05 | 9.25e-05 | 0.000102 | 0.000116 | 0.00013 | 0.000148 | 0.00017 | 0.000192 | 0.000219
in methanol | 0.000281 | 0.00033 | 0.000403 | 0.000478 | 0.000602 | 0.000728 | 0.000948 | 0.00115 | 0.00142 | 0.00178
in methyl acetate | 0.00027 | 0.000313 | 0.000372 | 0.000463 | 0.000565 | 0.000651 | 0.000758 | 0.000921 | 0.00107 | 0.0013
